Like-named read-outs stand apart in the source and are kept apart here. One block for each molecule: values may come before it.
Legend:
[1] = biological target: histone deacetylase activity (HeLa nuclear extract); assay: Histone deacetylase activity (Fluor de Lys, HeLa nuclear extract); format: biochemical; settings: read-out: Inhibition of HDAC (IC50 nM)
Procedure: Histone Deacetylase Activity
The ability of compounds to inhibit histone deacetylase activities was measured using the commercially available HDAC fluorescent activity assay from Biomol. In brief, the Fluor de Lys™ substrate, a lysine with an epsilon-amino acetylation, is incubated with the source of histone deacetylase activity (HeLa nuclear extract) in the presence or absence of inhibitor. Deacetylation of the substrate sensitises the substrate to Fluor de Lys™ developer, which generates a fluorophore. Thus, incubation of the substrate with a source of HDAC activity results in an increase in signal that is diminished in the presence of an HDAC inhibitor.
Data are expressed as a percentage of the control, measured in the absence of inhibitor, with background signal being subtracted from all samples, as follows: % activity=[(S^i−B)/(S^o−B)]×100 where S^i is the signal in the presence of substrate, enzyme and Inhibitor, S^o is the signal in the presence of substrate, enzyme and the vehicle in which the inhibitor is dissolved, and B is the background signal measured in the absence of enzyme.
IC50 values were determined by non-linear regression analysis, after fitting the results of eight data points to the equation for sigmoidal dose response with variable slope (% activity against log concentration of Compound), using Graphpad Prism software.
Histone deacetylase activity from crude nuclear extract derived from HeLa cells was used for screening. The preparation, purchased from 4C (Seneffe, Belgium), was prepared from HeLa cells harvested whilst in exponential growth phase. The nuclear extract was prepared according to the methodology described by J. D. Dignam, Nucl. Acid. Res., 1983, 11, 1475-1489, snap frozen in liquid nitrogen and stored at −80° C. The final buffer composition was 20 mM Hepes, 100 mM KCl, 0.2 mM EDTA, 0.5 mM DTT, 0.2 mM PMSF and 20% (v/v) glycerol.

U937 cells = assay: U937 cell inhibition assay (WST-1 proliferation); format: cell-based; settings: for Ratio cell IC50s to enzyme IC50: U937 proliferation IC50 to HDAC enzyme IC50
Procedure: (§1) U937 and HUT Cell Inhibition Assay
(§2) Cancer cell lines (U937 and HUT) growing in log phase were harvested and seeded at 1000-2000 cells/well (100 μl final volume) into 96-well tissue culture plates. Following 24 hours of growth cells were treated with compound. Plates were then re-Incubated for a further 72-96 hours before a WST-1 cell viability assay was conducted according to the suppliers (Roche Applied Science) instructions.
(§3) Data were expressed as a percentage inhibition of the control, measured in the absence of Inhibitor, as follows: % inhibition=100−[(S^i/S^o)×100] where S^i is the signal in the presence of Inhibitor and S^o s the signal in the presence of DMSO.
(§4) Dose response curves were generated from 8 concentrations (top final concentration 10 μM, with 3-fold dilutions), using 6 replicates.
(§5) IC50 values were determined by non-linear regression analysis, after fitting the results to the equation for sigmoidal dose response with variable slope (% activity against log concentration of compound), using Graphpad Prism software.

HUT 78 cells = assay: HUT cell inhibition assay (WST-1 proliferation); format: cell-based; settings: Table 5; for Ratio IC50s in HUT 78 to U937 cells: proliferation IC50s
Procedure: as §1, §2, §3, §4, §5

p38 MAP Kinase α = biological target: T1, p38 MAP Kinase α (Homo sapiens, UniProt Q16539); assay: p38 MAP Kinase enzyme assay; format: biochemical; settings: Table 1 (biology); compound as such, Ester for Example 1; read-out: Inhibition of P38 (IC50 nM)
T1 construct: purchased Upstate (Dundee UK)
Procedure: p38 MAP Kinase Enzyme Assay
The ability of compounds to inhibit p38 MAPα Kinase activity was measured in an assay performed by Upstate (Dundee UK). In a final reaction volume of 25 μL, p38 MAP Kinase α (5-10 mU) is incubated with 25 mM Tris pH 7.5, 0.02 mM EGTA, 0.33 mg/mL myelin basic protein, 10 mM MgAcetate and [γ-^33P-ATP](specific activity approx. 500 cpm/pmol, concentration as required). The reaction is initiated by the addition of the MgATP mix. After incubation for 40 minutes at room temperature, the reaction is stopped by the addition of 5 μL of a 3% phosphoric acid solution. 10 μL of the reaction is then spotted onto a P30 filtermat and washed three times for 5 minutes in 75 mM phosphoric acid and once in methanol prior to drying and scintillation counting.
Duplicate data points are generated from a 1/3 log dilution series of a stock solution in DMSO. Nine dilutions steps are made from a top concentration of […], and a ‘no compound’ blank is included. The standard radiometric filter-binding assay is performed at an ATP concentration at, or close to, the Km. Data from scintillation counts are collected and subjected to free-fit analysis by Prism software. From the curve generated, the concentration giving 50% inhibition is determined and reported.

[2] = test system: phosphorylation of MAPKAP-2 in U937 cells; assay: p38 MAP Kinase cellular assay: inhibition of phosphorylation of MAPKAP2 in U937 cells; format: cell-based; settings: for IC50: Homo sapiens, U-937
Procedure: (§6) p38 MAP Kinase Cellular Assay: Inhibition of Phosphorylation of MAPKAP2
(§7) U937 or HUT78 cells were plated in RPMI 1640, and were incubated at 37° C., 5% CO2 for 18 hours. 10 mM stocks of compounds were diluted media/0.1% DMSO to give a log or semi-log dilution series. The wells for ‘no treatment’ and ‘anisomycin’ were treated with 0.1% DMSO only. The cells were incubated at 37° C., 5% CO2 for a further 4 hours. Anisomycin was added to all wells except ‘no treatment’ at a final concentration of 10 μM. The cells were incubated at 37° C., 5% CO2 for 30 minutes before harvest. Plates were stood on ice whilst harvesting, and all following steps were carried out at 4° C. The cells were pelleted at 1000 rpm for 10 minutes at 4° C., the media aspirated, and the pellet washed with cold PBS. The pellets were lysed in 120 μl of SDS lysis buffer (62.5 mM Tris, pH 6.8, 2% SDS, 10% glycerol, 50 mM DTT, with protease inhibitors and phosphatase inhibitors added according to the manufacturers' recommendations). After 30 minutes on ice, the samples were sonicated for 5 seconds before centrifugation at 13,000 rpm 4° C. for 10 minutes to remove cell debris. 10 μl of the resulting gel samples were loaded per lane on NOVEX 4-12% Bis-Tris MOPS gels. Membranes from western transfer of gels were blotted with anti-phospho MAPKAP2, anti-phospho HSP27 and anti GAPDH according to the manufacturers' Instructions. Signal was visualised using HRP-Hnked anti-rabbit or anti-mouse antibodies, ECL reagent and ECL film. IC50 values for the various compounds were visualised from the resulting photographic images, using both band-shift and signal intensity.

[3] = test system: phosphorylation of MAPKAP-2 in HUT 78 cells; assay: p38 MAP Kinase cellular assay: inhibition of phosphorylation of MAPKAP2 in HUT 78 cells; format: cell-based; settings: for IC50: Homo sapiens, HuT78, HUT 78 non-monocyte cell line; for Ratio IC50s in HUT 78 to U937 cells: MAPKAP-2 phosphorylation IC50s
Procedure: as §6, §7

[4] = Table 4, compound as such, Ester for Examples 7 and 9
[5] = Table 5, compound as such, Ester for Examples 7 and 9

T1 sequence (Q16539 whole entry): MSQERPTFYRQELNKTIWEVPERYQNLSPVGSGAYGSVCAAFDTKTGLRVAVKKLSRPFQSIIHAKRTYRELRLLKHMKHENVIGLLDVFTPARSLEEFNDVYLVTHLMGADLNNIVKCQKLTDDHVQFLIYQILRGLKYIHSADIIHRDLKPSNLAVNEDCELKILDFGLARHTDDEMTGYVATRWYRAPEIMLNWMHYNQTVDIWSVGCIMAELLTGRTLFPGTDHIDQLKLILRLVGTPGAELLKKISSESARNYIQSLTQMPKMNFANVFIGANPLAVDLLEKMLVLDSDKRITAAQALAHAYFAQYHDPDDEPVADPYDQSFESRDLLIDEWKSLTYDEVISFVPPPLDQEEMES

IC50 ([1]; Table 4, Acid = carboxylic acid hydrolysis product of the ester): 6240 nM | IC50 [1, 4]: 4900 nM | IC50 ([1]; Table 5, Acid = carboxylic acid hydrolysis product of the ester): 6240 nM | IC50 [1, 5]: 4900 nM | IC50 (U937 cells; Homo sapiens, U-937, Table 4, head prints no unit, same values in Table 5 as IC50 nM, read-out: Inhibition of proliferation in U937 cells): 190 nM | IC50 (U937 cells; Homo sapiens, U-937, Table 5, U937 cells, read-out: Inhibition of proliferation in U937 cells (IC50 nM)): 190 nM | Ratio cell IC50s to enzyme IC50 (U937 cells; Table 4): 0.04
SMILES: CC(C)CC(C)(NCc1ccc(CCC(=O)NO)cc1)C(=O)OC1CCCC1 (racemic) [Example 9, Cyclopentyl N-{4-[3-(hydroxyamino)-3-oxopropyl]benzyl}-2-methyl-D,L-leucinate]
potency in monocytic (U937) versus non monocytic (Hut78) cell lines (proliferation) (U937 cells; U937 versus Hut78): 30 times | potency in the cellular (U937 proliferation) assay compared with the parent compound (U937 cells; versus Compound IV): significantly more potent than the parent compound | IC50 (HUT 78 cells; Homo sapiens, HuT78, HUT 78 cells): 5500 nM | Ratio IC50s in HUT 78 to U937 cells (HUT 78 cells): 30

IC50 (p38 MAP Kinase α): 50 nM | IC50 ([2]; Table 1 (biology), U937 cells, read-out: Inhibition of phosphorylation of MAPKAP-2 in U937 cells (IC50)): 300 nM | IC50 ([2]; Table 2, U937 monocyte cell line, read-out: Inhibition of phosphorylation of MAPKAP-2 in U937 cells (IC50, nM) (monocyte cell line)): 300 nM | Ratio cell IC50s to enzyme IC50 ([2]; U937 MAPKAP-2 IC50 to P38 enzyme IC50): 6 | IC50 ([3]; Table 2): 450 nM
SMILES: Nc1c(C(=O)c2ccc(F)cc2F)ccc(=O)n1-c1ccccc1 [Compound I, reference compound]
potency in monocytic versus non monocytic cell lines (MAPKAP-2 phosphorylation) ([2]; U937 versus HUT 78): equipotent | Ratio IC50s in HUT 78 to U937 cells ([3]; Table 2): 1.5

IC50 ([2]; Table 3, U937 monocyte cell line, read-out: Inhibition of phosphorylation of MAPKAP-2 in U937 cells (IC50, nM) (monocyte cell line)): 10 nM | IC50 ([3]; Table 3): 10 nM
SMILES: Nc1c(C(=O)c2ccc(F)cc2F)ccc(=O)n1-c1c(F)cccc1F [Compound II, reference compound]
Ratio IC50s in HUT 78 to U937 cells ([3]; Table 3): 1

IC50 [1, 4]: 2600 nM | IC50 [1, 5]: 2600 nM | Ratio cell IC50s to enzyme IC50 (U937 cells; Table 4): >3.85
SMILES: O=C(CCc1ccccc1)NO [Compound IV, N-Hydroxy-3-phenyl-propionamide, reference compound]
inhibition at 10 µM (U937 cells; Homo sapiens, U-937, Table 4, @ 10 μM): 13% | Inhibition of proliferation in U937 cells (U937 cells; Table 5, @ 10 μM): 13% @ 10 μM | inhibition at 10 µM (HUT 78 cells; Homo sapiens, HuT78, @ 10 μM): 10% | Ratio IC50s in HUT 78 to U937 cells (HUT 78 cells): ~1
